Laboratory results reported in patent publication US6242439A, “Azetidinone derivatives for the treatment of HCMV infections” (Boehringer Ingelheim (Canada) Ltd., priority 1998, dated 2001).
Read-outs that look alike come from different tables or passages of the source.

Columns and labels:
[1] = biological target: HCMV NO protease (Human cytomegalovirus, UniProt P16753); test: HCMV NO Protease Assay (inhibition of cleavage of internally quenched fluorogenic peptide substrate); assay type: biochemical; conditions: 100 nM HCMV NO protease, 5 μM substrate, 2.5 h at 30°, pH 8
Sequence of HCMV NO protease (P16753 1-256): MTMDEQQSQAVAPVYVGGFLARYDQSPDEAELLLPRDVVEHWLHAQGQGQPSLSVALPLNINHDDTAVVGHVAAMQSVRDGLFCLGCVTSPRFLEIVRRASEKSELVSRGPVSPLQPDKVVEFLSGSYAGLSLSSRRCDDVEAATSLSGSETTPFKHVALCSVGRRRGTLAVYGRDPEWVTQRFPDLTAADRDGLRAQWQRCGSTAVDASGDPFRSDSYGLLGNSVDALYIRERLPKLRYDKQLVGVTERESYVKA
Description: This particular assay determines the ability of a test compound to inhibit the activity of HCMV protease. More specifically, in the assay described herein, the inhibitory activity of the test compound is evaluated on the basis of its ability to interfere with the HCMV No protease cleavage of a fluorogenic peptide substrate which in turn is based on the maturation cleavage site of the enzyme.
A. HCMV NO Protease Assay
Material & Methods: Fluorescence measurements were recorded on a Perkin-Elmer LS-50B spectrofluorimeter equipped with a plate reader accessory. UV measurements were recorded on a Thermomax® microplate reader from Molecular Devices Corporation, Menlo Park, Calif., USA.
HCMV NO protease was assayed with an internally quenched fluorogenic substrate based on the maturation cleavage site (Abz-[…](3-NO2)R--OH, kcat /KM =260 M^-1 s^-1). The fluorescence increase upon cleavage of the Ala-Ser amide bond was monitored using excitation λ=312 nm (slit 2.5 nm) and emission λ=415 nm (slit 5 nm). A protocol adaptable to a 96-well plate format was designed for the determination of IC50 values of inhibitors. […] After this period, enzymatic hydrolysis of the fluorogenic substrate in the absence of inhibitor led to about a 30% conversion. Quenching was not required before fluorescence measurement since the total scanning time by the plate reader accessory was brief relative to the duration of the reaction. The aqueous incubation buffer contained 50 mM tris(hydroxymethyl)aminomethane.HCl pH 8, 0.5M Na2 SO4, 50 mM NaCl, 0.1 mM EDTA, 1 mM tris(2-carboxyethyl)phosphine.HCl, 3% v/v DMSO and 0.05% w/v casein. The final concentrations of HCMV NO protease (expressed in terms of total monomer concentration) and substrate were 100 nM and 5 μM respectively. IC50 values were obtained through fitting of the inhibition curve to a competitive inhibition model using SAS NLIN procedure. The mode of inhibition was determined by measurements of the initial rates (in cuvettes) at various substrate concentrations in the buffer as described above. The IC50 values listed in the following tables the IC50 were obtained according to this assay.

[2] = test system: HCMV (strain AD169, ATCC VR-538); test: Plaque Reduction Assay (PRA); assay type: cell-based, human cytomegalovirus (HCMV); conditions: Hs-68 cells, approximately 50 PFU HCMV AD169, 8 days at 37°
Description: B. Plaque Reduction Assay (PRA)
Hs-68 cells (ATCC #CRL 1635) were seeded in 12-well plates at 83,000 cells/well in 1 mL of DMEM medium (Gibco Canada Inc.) supplemented with 10% fetal bovine serum (FBS, Gibco Canada Inc.). The plates were incubated for 3 days at 37° to allow the cells to reach 80-90% confluency prior to the assay.
The medium was removed from the cells by aspiration. The cells were then infected with approximately 50 PFU of HCMV (strain AD169, ATCC VR-538) in DMEM medium supplemented with 5% inactivated FBS (assay medium). (DMEM medium is commercially available and has been described by R. Dulbecco et al., Virology 1959, 8, 396.) The virus was allowed to adsorb to cells for 2 h at 37°. Following viral adsorption, the medium was removed from the wells by aspiration. The cells were then incubated with or without 1 mL of appropriate concentrations of test reagent in assay medium. Occasionally, test compounds were added 24 h post-infection. After 4 days of incubation at 37°, the medium was exchanged with fresh medium containing test compound and 4 days later the cells were fixed with 1% aqueous formaldehyde and stained with a 2% violet solution in 20% ethanol in water. Microscopic plaques were counted using a stereomicroscope. Drug effects were calculated as a percent reduction in the number of plaques in the presence of each drug concentration compared to the number observed in the absence of drug. Ganciclovir was used as a positive control in all experiments.

[3] = Cytotoxic effects, tetrazolium salt (MTT) metabolic assay; assay type: cell-based; conditions: read-out: TC50 (the source's name)
Description: In conjunction with the appropriate starting materials and intermediates, the procedures of examples 1 to 11 can be used to prepare other compounds of formula 1. Examples of compounds thus prepared are listed in the following Tables I, II and III together with mass spectrum data for the compounds, and results from the assays A and B of example 12. Cytotoxic effects noted as TC50 in the following tables were determined according to the tetrazolium salt (MTT) metabolic assay, F. Denizot and F. Lang, J. Immun. Meth., 1986, 89, 271.

[4] = Human betaherpesvirus 5, AD169, Hs68, 192 h, read-out: EC50

Row | Compound | IC50 [1] | EC50 [2, 4] | CC50 [3] | EC50 [2] | EC50 ([2]; read-out: EC50)
1 | C[C@@H]1C(=O)N(C(=O)N(C)Cc2ccccc2)[C@H]1Cc1ccccc1 [Entry 208] | 4.2 µM | 150 µM | > 250 µM |  | 
2 | COC(=O)c1ccc(CN(C)C(=O)N2C(=O)C[C@@H]2Cc2ccccc2)cc1 [Entry 131] | 2.5 µM | 140 µM | > 250 µM |  | 
3 | CN(Cc1ccc([N+](=O)[O-])cc1)C(=O)N1C(=O)C[C@@H]1Cc1ccco1 [Entry 229] | 3.1 µM | 143 µM | > 261 µM |  | 
4 | CN(Cc1ccc([N+](=O)[O-])cc1)C(=O)N1C(=O)C[C@@H]1Cc1nc2ccccc2s1 [Entry 225] | 0.7 µM | 30 µM | > 50 µM |  | 
5 | CC[C@@H](NC(=O)N1C(=O)C[C@@H]1Cc1nnn(C)n1)c1ccccc1 [Entry 222] | 5 µM | 125 µM | > 148 µM |  | 
6 | CN(Cc1ccc(C(F)(F)F)cc1)C(=O)N1C(=O)C[C@@H]1Cc1nc2ccccc2s1 [Entry 219] | 0.88 µM | 110 µM | > 250 µM |  | 
7 | C[C@@H]1C(=O)N(C(=O)Nc2ccccc2)[C@H]1Cc1ccccc1 [Entry 203] | 0.81 µM | > 250 µM | > 250 µM |  | 
8 | C[C@@H]1C(=O)N(C(=O)NCc2ccccc2)[C@H]1Cc1ccccc1 [Entry 207, 4(S)-Benzyl-3(S)-methyl-2-oxoazetidine-1-carboxylic acid benzylamide] | 5.3 µM | 140 µM | > 250 µM |  | 
9 | CCC(NC(=O)N1C(=O)C[C@@H]1Cc1ccccc1)c1ccncc1 (stereo partly drawn) [Entry 109] | 1.6 µM | 130 µM | > 250 µM |  | 
10 | Cc1ccc(CN(C)C(=O)N2C(=O)C[C@@H]2Cc2ccccc2)cc1 [Entry 129] | 8.9 µM | 140 µM | > 200 µM |  | 
11 | O=C1C[C@H](Cc2ccccc2)N1C(=O)NCc1cccnc1 [Entry 142] | 9.7 µM | > 250 µM | > 250 µM |  | 
12 | CN(Cc1ccc(SC(F)(F)F)cc1)C(=O)N1C(=O)C[C@@H]1Cc1ccccc1 [Entry 137] | 6.9 µM | > 250 µM | > 250 µM |  | 
13 | CN(Cc1ccc(C(F)(F)F)cc1)C(=O)N1C(=O)C[C@@H]1Cc1nccs1 [Entry 231] | 2.7 µM |  | > 25 µM | 11 µM | 
14 | O=C1C[C@H](Cc2ccccc2)N1C(=O)NCc1ccncc1 [Entry 136, 4(S)-Benzyl-2-oxoazetidine-1-carboxylic acid (4-pyridinylmethyl) amide] | 13 µM | > 250 µM | > 250 µM |  | 
15 | CCCC(NC(=O)N1C(=O)CC1Cc1ccccc1)c1ccccc1 (stereo not drawn) [Entry 121] | 3.4 µM | 160 µM | > 250 µM |  | 
16 | CC(C)c1ccc(CN(C)C(=O)N2C(=O)C[C@@H]2Cc2ccccc2)cc1 [Entry 134] | 6.4 µM | 150 µM | 200 µM |  | 

Row | Compound | IC50 [1] | EC50 [2, 4] | CC50 [3] | EC50 [2] | EC50 ([2]; read-out: EC50)
17 | CC[C@@H](NC(=O)N1C(=O)[C@@H](SC)[C@@H]1Cc1ccccc1)c1ccccc1 [Entry 209, 4(S)-Benzyl-3(S)-(methylthio)-2-oxoazetidine-1-carboxylic acid (1(R)-phenylpropyl)amide] | 4.7 µM | 27 µM | > 250 µM |  | 
18 | C[C@@H](NC(=O)N1C(=O)C[C@@H]1Cc1ccccc1)c1cccc2ccccc12 [Entry 105] | 7.7 µM | > 18 µM | > 18 µM |  | 
19 | CC[C@@H](NC(=O)N1C(=O)C[C@@H]1Cc1ccccc1)c1ccccc1 [Entry 118] | 2.6 µM | 180 µM | > 250 µM |  | 
20 | CC(=O)Nc1ccc(CN(C)C(=O)N2C(=O)C[C@@H]2Cc2ccccc2)cc1 [Entry 132] | 17 µM | 150 µM | > 250 µM |  | 
21 | O=C1C[C@H](Cc2ccccc2)N1C(=O)Nc1ccc(F)cc1 [Entry 101] | 3.7 µM | > 250 µM | > 250 µM |  | 
22 | CN(Cc1ccc([N+](=O)[O-])cc1)C(=O)N1C(=O)C[C@@H]1Cc1cccs1 [Entry 226] | 1.3 µM | 70 µM | > 79 µM |  | 
23 | CN(Cc1ccc(C(F)(F)F)cc1)C(=O)N1C(=O)C[C@@H]1Cc1cccs1 [Entry 228] | 4.5 µM | > 16 µM | > 16 µM |  | 
24 | CCC(NC(=O)N1C(=O)[C@@H](C)[C@@H]1Cc1ccccc1)c1ccncc1 (single isomer, unassigned) [Entry 205] | 21 µM |  | > 250 µM |  | > 250 µM
25 | CN(Cc1ccc([N+](=O)[O-])cc1)C(=O)N1C(=O)C[C@@H]1Cc1nnn(C)n1 [Entry 224] | 2.7 µM | 100 µM | > 133 µM |  | 
26 | CN(Cc1ccc(C(F)(F)F)cc1)C(=O)N1C(=O)C[C@@H]1Cc1ccco1 [Entry 221] | 7.1 µM | 59 µM | > 100 µM |  | 
27 | CC[C@@H](NC(=O)N1C(=O)C[C@@H]1CCc1ccccc1)c1ccccc1 [Entry 212] | 4.3 µM | 140 µM | > 250 µM |  | 
28 | CN(Cc1ccc(Cl)cc1)C(=O)N1C(=O)C[C@@H]1Cc1ccccc1 [Entry 126] | 6.9 µM | 150 µM | > 250 µM |  | 
29 | CN(Cc1cccc([N+](=O)[O-])c1)C(=O)N1C(=O)C[C@@H]1Cc1ccccc1 [Entry 133] | 6.9 µM | 170 µM | > 250 µM |  | 
30 | Cc1ccc(NC(=O)N2C(=O)C[C@@H]2Cc2ccccc2)cc1 [Entry 103] | 5.3 µM | > 250 µM | > 250 µM |  | 
31 | CC[C@@H](NC(=O)N1C(=O)C[C@@H]1C(C)C)c1ccccc1 [Entry 213] | 5.9 µM | 210 µM | > 250 µM |  | 
32 | CC[C@H]1CC(=O)N1C(=O)N[C@H](CC)c1ccccc1 [Entry 214] | 7.6 µM | 180 µM | > 250 µM |  | 
